Consider 19 compounds from patent publication US20180370927A1, “MICROBIOCIDAL OXADIAZOLE DERIVATIVES” (SYNGENTA PARTICIPATIONS AG, priority 2015, published 2018).

In series [1] the test system is Uromyces viciae-Fabae. The series is described as follows: Uromyces viciae-fabae / field bean / leaf disc preventative (faba-bean rust). In kind it is in vivo. Particulars: foliar, 288 h, 100 ppm in the applied formulation, field bean leaf discs, assessed 12 days after application, read-out: disease control compared to untreated control leaf discs. On the procedure: Leaf disks or leaf segments of various plant species are cut from plants grown in a greenhouse. The cut leaf disks or segments are placed in multiwell plates (24-well format) onto water agar. The leaf disks are sprayed with a test solution before (preventative) or after (curative) inoculation. Compounds to be tested are prepared as DMSO solutions (max. 10 mg/mL) which are diluted to the appropriate concentration with 0.025% Tween20 just before spraying. The inoculated leaf disks or segments are incubated under defined conditions (temperature, relative humidity, light, etc.) according to the respective test system. A single evaluation of disease level is carried out 3 to 14 days after inoculation, depending on the pathosystem. Percent disease control relative to the untreated check leaf disks or segments is then calculated.
Example 5: Fungicidal Activity Against Uromyces viciae-Fabael Field Bean/Leaf Disc Preventative (Faba-Bean Rust)
Field bean leaf discs are placed on water agar in multiwell plates (96-well format) and 10 μL of the formulated test compound diluted in acetone and a spreader pipetted onto the leaf disc. Two hours after application leaf discs are inoculated by spraying a spore suspension on the lower leaf surface. The leaf discs are incubated in a climate cabinet at 22° C. with 18 hour days and 70% relative humidity. The activity of a compound is assessed as percent disease control compared to untreated when an appropriate level of disease damage appears in untreated check leaf disks (12 days after application).
The following compounds at 100 ppm in the applied formulation give at least 80% disease control in this test when compared to untreated control leaf discs under the same conditions, which show extensive disease development.

The subject of series [2] is Glomerella lacenarium (Colletotrichum lacenarium). The series can be described thus: Glomerella lacenarium (Colletotrichum lacenarium) liquid culture / cucumber / preventative (anthracnose). It counts as cell-based. Particulars: 20 ppm in the applied formulation, liquid culture in PDB, 24° C., 3 to 4 days after application, read-out: disease control (inhibition of growth, photometric) compared to untreated control. Put shortly: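 At 20 ppm in the applied formulation, compounds were mixed with fungal spores in potato dextrose broth and held at 24° C. After 3–4 days, photometric growth measurement gave percent antifungal activity relative to untreated control.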

The test system of series [3] is Phakopsora pachyrhizi. The series is described as follows: Phakopsora pachyrhizi / soybean / leaf disc preventative (Asian soybean rust). In kind it is in vivo. To be noted: foliar, 200 ppm in the applied formulation, soybean leaf disks, assessed 12 to 14 days after application, read-out: disease control compared to untreated control leaf disks. In outline:
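Soybean leaf discs on water agar were sprayed with formulated compound diluted in water, then inoculated one day later with spore suspension on the lower leaf surface. Held 24-36 h dark at 20° C., 75% RH, then 12 h light/day; percent disease control versus untreated scored 12 to 14 days after application.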

Series [4] relates to Puccinia recondita f. Sp. Tritici. The series can be described thus: Puccinia recondita f. sp. tritici / wheat / leaf disc preventative (brown rust). It counts as in vivo. To be noted: foliar, 200 ppm in the applied formulation, wheat leaf segments, preventative, assessed 7 to 9 days after application, read-out: disease control compared to untreated control leaf disks. Put shortly: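 Wheat cv. Kanzler leaf segments on agar sprayed with formulated compound in water, inoculated with rust spores 1 day later. Incubated at 19° C, 75% rh, 12 h light/12 h dark; percent disease control versus untreated scored 7 to 9 days after application; tested at 200 ppm.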

For series [5] the test system is unchanged. The series can be described thus: Puccinia recondita f. sp. tritici / wheat / leaf disc curative (brown rust). Particulars: foliar, 200 ppm in the applied formulation, wheat leaf segments, curative (applied 1 day after inoculation), assessed 6 to 8 days after application, read-out: disease control compared to untreated control leaf disks. In kind it is in vivo. In outline: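 Curative treatment: formulated compound in water was applied 1 day post-inoculation to spore-inoculated wheat cv. Kanzler segments held on agar. Segments stayed at 19° C and 75% relative humidity (12 h photoperiod after application), and disease control relative to untreated checks was assessed 6 to 8 days later.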

Molecules are shown by their SMILES. Bounds are passed on as bounds.

A word on the melting point: it is the temperature, or range, at which the solid turns liquid. For orientation: inhibition means the change of the read-out against control, counted positive when it falls. Take `CON(C)C(=O)C(=O)Nc1ccc(-c2noc(C(F)(F)F)n2)cc1` [Compound 4.9, N′-methoxy-N′-methyl-N-[4-[5-(trifluoromethyl)-1,2,4-oxadiazol-3-yl]phenyl]oxamide]: the melting point was 163 to 165 °C. Also, the pest or weed control at 100 ppm in series [1] was no less than 80%. The inhibition at 20 ppm in series [2] is no less than 80%. Further, the pest or weed control at 200 ppm in series [3] is no less than 80%. Also, the pest or weed control at 200 ppm in series [4] is no less than 80%.
As to `CO/N=C(/C(=O)Nc1ccc(-c2noc(C(F)(F)F)n2)cc1)c1ccccc1` [Compound 2.1, (2E)-2-methoxyimino-2-phenyl-N-[4-[5-(trifluoromethyl)-1,2,4-oxadiazol-3-yl]phenyl]acetamide], the pest or weed control at 100 ppm in series [1] is no less than 80%.
On to `C#CCNC(=O)C(=O)Nc1ccc(-c2noc(C(F)(F)F)n2)cc1` [Compound 4.5, N-prop-2-ynyl-N′-[4-[5-(trifluoromethyl)-1,2,4-oxadiazol-3-yl]phenyl]oxamide], for which the melting point is 212 to 214 °C. In series [1], the pest or weed control at 100 ppm is no less than 80%. Further, in series [3], the pest or weed control at 200 ppm is no less than 80%.
As to `COCCNC(=O)C(=O)Nc1ccc(-c2noc(C(F)(F)F)n2)cc1C` [Compound 4.38, N-(2-methoxyethyl)-N′-[2-methyl-4-[5-(trifluoromethyl)-1,2,4-oxadiazol-3-yl]phenyl] oxamide], the melting point lay within 126 to 130 °C. Also, the pest or weed control at 200 ppm in series [5] was no less than 80%. Also, in series [2], the inhibition at 20 ppm is no less than 80%. In series [3], the pest or weed control at 200 ppm was no less than 80%. For the same compound, in series [4], the pest or weed control at 200 ppm was no less than 80%.
For `Cc1cc(-c2noc(C(F)(F)F)n2)ccc1NC(=O)C(=O)N(C)C` [Compound 4.37, N′,N′-dimethyl-N-[2-methyl-4-[5-(trifluoromethyl)-1,2,4-oxadiazol-3-yl]phenyl]oxamide], the melting point was 79 to 89 °C. In addition, the pest or weed control at 200 ppm in series [5] is no less than 80%. Moreover, in series [2], the inhibition at 20 ppm is no less than 80%. For the same compound, the pest or weed control at 200 ppm in series [3] is no less than 80%. The pest or weed control at 200 ppm in series [4] was no less than 80%.
As for `CON=C(C(=O)NCc1ccc(-c2noc(C(F)(F)F)n2)cc1)c1ccccc1` [Compound 2.2, 2-methoxyimino-2-phenyl-N-[[4-[5-(trifluoromethyl)-1,2,4-oxadiazol-3-yl]phenyl]methyl]acetamide], in series [1], the pest or weed control at 100 ppm is no less than 80%. Moreover, in series [2], the inhibition at 20 ppm is no less than 80%. The pest or weed control at 200 ppm in series [4] was no less than 80%.
`O=C(Nc1ccc(-c2noc(C(F)(F)F)n2)cc1)C(=O)c1cccc(F)c1` [Compound 1.2, 2-(3-fluorophenyl)-2-oxo-N-[4-[5-(trifluoromethyl)-1,2,4-oxadiazol-3-yl]phenyl]acetamide]: the pest or weed control at 100 ppm in series [1] is no less than 80%. In addition, the inhibition at 20 ppm in series [2] was no less than 80%.
The compound `O=C(Nc1ccc(-c2noc(C(F)(F)F)n2)cc1)C(=O)NC1CC1` [Compound 4.6, N′-cyclopropyl-N-[4-[5-(trifluoromethyl)-1,2,4-oxadiazol-3-yl]phenyl]oxamide] had a melting point of 238 to 241 °C. The pest or weed control at 100 ppm in series [1] is no less than 80%. For the same compound, in series [3], the pest or weed control at 200 ppm is no less than 80%.
In the case of `CON1CCC(N(C)C(=O)C(=O)NCc2ccc(-c3noc(C(F)(F)F)n3)cc2)CC1` [Compound 4.44, N′-(1-methoxy-4-piperidyl)-N′-methyl-N-[[4-[5-(trifluoromethyl)-1,2,4-oxadiazol-3-yl]phenyl]methyl] oxamide], the melting point is 123 to 125 °C. In addition, in series [5], the pest or weed control at 200 ppm was no less than 80%. Besides, the inhibition at 20 ppm in series [2] was no less than 80%. In addition, the pest or weed control at 200 ppm in series [3] is no less than 80%. Moreover, the pest or weed control at 200 ppm in series [4] was no less than 80%.
Regarding `O=C(O)C(=O)Nc1ccc(-c2noc(C(F)(F)F)n2)cc1` [Compound 3.1, 2-oxo-2-[4-[5-(trifluoromethyl)-1,2,4-oxadiazol-3-yl]anilino]acetic acid], the melting point is 184 to 186 °C. The pest or weed control at 100 ppm in series [1] was no less than 80%.
Compound `CN(C)NC(=O)C(=O)Nc1ccc(-c2noc(C(F)(F)F)n2)cc1` [Compound 4.8, 2-(2,2-dimethylhydrazino)-2-oxo-N-[4-[5-(trifluoromethyl)-1,2,4-oxadiazol-3-yl]phenyl]acetamide] registered a melting point of 232 to 234 °C. Also, in series [1], the pest or weed control at 100 ppm is no less than 80%. In series [3], the pest or weed control at 200 ppm was no less than 80%.
The compound `CO/N=C(\C)C(=O)NCc1ccc(-c2noc(C(F)(F)F)n2)cc1` [Compound 2.9, (2E)-2-methoxyimino-N-[[4-[5-(trifluoromethyl)-1,2,4-oxadiazol-3-yl]phenyl]methyl] propanamide] had a melting point of 75.7 to 76.2 °C. Besides, the pest or weed control at 200 ppm in series [5] was no less than 80%. Further, the inhibition at 20 ppm in series [2] is no less than 80%. In series [3], the pest or weed control at 200 ppm is no less than 80%. Also, the pest or weed control at 200 ppm in series [4] is no less than 80%.
In the case of `O=C(Nc1ccc(-c2noc(C(F)(F)F)n2)cc1)C(=O)c1ccccc1` [Compound 1.1, 2-oxo-2-phenyl-N-[4-[5-(trifluoromethyl)-1,2,4-oxadiazol-3-yl]phenyl]acetamide], in series [1], the pest or weed control at 100 ppm was no less than 80%.
In turn, `O=C(NCc1ccc(-c2noc(C(F)(F)F)n2)cc1)C(=O)N1CCCCC1` [Compound 4.40, 2-oxo-2-(1-piperidyl)-N-[[4-[5-(trifluoromethyl)-1,2,4-oxadiazol-3-yl]phenyl]methyl] acetamide] returned a melting point of 104 to 108 °C. In addition, the pest or weed control at 200 ppm in series [5] is no less than 80%. For the same compound, in series [2], the inhibition at 20 ppm is no less than 80%. Besides, the pest or weed control at 200 ppm in series [3] was no less than 80%. In addition, the pest or weed control at 200 ppm in series [4] was no less than 80%.
As to `CC(=O)C(=O)NCc1ccc(-c2noc(C(F)(F)F)n2)cc1` [Compound 1.35, 2-oxo-N-[[4-[5-(trifluoromethyl)-1,2,4-oxadiazol-3-yl]phenyl]methyl]propanamide], the melting point was 75.8 to 77.5 °C. Also, the pest or weed control at 200 ppm in series [5] was no less than 80%. Besides, the inhibition at 20 ppm in series [2] is no less than 80%. For the same compound, the pest or weed control at 200 ppm in series [3] is no less than 80%. The pest or weed control at 200 ppm in series [4] is no less than 80%.
For the compound `CCOC(=O)C(=O)Nc1ccc(-c2noc(C(F)(F)F)n2)cc1` [Compound 2.3, ethyl 2-oxo-2-[4-[5-(trifluoromethyl)-1,2,4-oxadiazol-3-yl]anilino]acetate], the melting point lay in the range of 164 to 166 °C. In addition, in series [1], the pest or weed control at 100 ppm is no less than 80%. In addition, the pest or weed control at 200 ppm in series [4] was no less than 80%.
Compound `CN(Cc1ccc(-c2noc(C(F)(F)F)n2)cc1)C(=O)C(N)=O` [Compound 4.30, N′-methyl-N′-[[4-[5-(trifluoromethyl)-1,2,4-oxadiazol-3-yl]phenyl]methyl] oxamide] registered a melting point of 120 to 125 °C. For the same compound, the pest or weed control at 200 ppm in series [5] is no less than 80%. In series [2], the inhibition at 20 ppm was no less than 80%. Also, the pest or weed control at 200 ppm in series [3] was no less than 80%. Moreover, in series [4], the pest or weed control at 200 ppm was no less than 80%.
As for `CCCON(Cc1ccc(-c2noc(C(F)(F)F)n2)cc1)C(=O)C(N)=O` [Compound 4.11, N′-propoxy-N′-[[4-[5-(trifluoromethyl)-1,2,4-oxadiazol-3-yl]phenyl]methyl] oxamide], the pest or weed control at 100 ppm in series [1] is no less than 80%. Also, the inhibition at 20 ppm in series [2] is no less than 80%. Also, the pest or weed control at 200 ppm in series [4] is no less than 80%.
Compound `O=C(NCC1CC1)C(=O)Nc1ccc(-c2noc(C(F)(F)F)n2)cc1` [Compound 4.3, N-(cyclopropylmethyl)-N′-[4-[5-(trifluoromethyl)-1,2,4-oxadiazol-3-yl]phenyl]oxamide] came in with a melting point of 209 to 212 °C. Further, the pest or weed control at 100 ppm in series [1] is no less than 80%. In series [3], the pest or weed control at 200 ppm is no less than 80%.
